The test system of test [1] is Gli1 expression (Smoothened signaling). The test can be described thus: Gli1 expression in mouse skin after depilation and oral compound dosing (quantitative PCR relative to RGS). It counts as in vivo. As to conditions: five days after depilation, six hours after administration. Here is the method: Paladini et al. (2005) J Invest Dermatol 125:638-646. For this work, the mice were deplilated using wax strips (Sally Hansen, Del Laboratories, Inc, Uniondale, N.Y.). Five days after depilation, mice were dosed orally with compound or vehicle. Six hours after compound administration, animals were euthanized and skin samples were collected. RNA was purified from the skin samples using a mirVana miRNA Isolation kit (Ambion, Austin, Tex.). cDNA was prepared from the RNA, and Gli1 expression levels were determined by real-time, quantitative PCR relative to the RGS reference gene.

For test [2], the system named is medulloblastomas from Ptch+/−p53−/− mice. In words: Mouse medulloblastoma allograft model, antitumor activity in vivo. As to conditions: 10 mg/kg, one dose per day, after 6 days of treatment; tumors of average size 200 mm^3 at start. Here is the method:
Briefly, medulloblastomas from Ptch+/−p53−/− mice were subcutaneously implanted into immunocompromised mice, and subsequent passages of these tumor allografts were used for compound testing. For compound studies, animals bearing tumors with an average size of 200 mm^3 were treated with vehicle or 10 mg/kg compound 23 on a schedule of one dose per day for a total of 6 days.

`C[C@H]1CN(c2nnc(-c3ccccc3)c3ccccc23)CCN1C(=O)c1ccccc1` [Compound 5, (S)-(2-methyl-4-(4-phenylphthalazin-1-yl)piperazin-1-yl)(phenyl)-methanone]: in test [1] (100 mg/kg oral), the “[Gli1/RGS ratio compound]/[Gli1/RGS ratio vehicle]” value is on record as 0.41.

With `C[C@@H]1CN(C(=O)c2ccccc2)CCN1c1nnc(-c2ccc(C(F)(F)F)cc2)c2ccccc12` [Compound 23, (R)-(3-methyl-4-(4-(4-(trifluoromethyl)-phenyl)-phthalazin-1-yl)piperazin-1-yl)(phenyl)-methanone], in test [2], the “reduction in tumor size relative to vehicle control” value is given as more than 99%. The “[Gli1/RGS ratio compound]/[Gli1/RGS ratio vehicle]” value in test [1] (50 mg/kg oral) worked out at 0.33.

(Values after patent US8153633B2, “Phthalazine compounds, compositions and methods of use” (Amgen Inc., priority 2007, dated 2012).)
